Measured values taken from paper PMC9905731, “PIN1 and PIN4 inhibition via parvulin impeders Juglone, PiB, ATRA, 6,7,4′-THIF, KPT6566, and EGCG thwarted hepatitis B virus replication” (Frontiers in Microbiology, 2023).

How the values were obtained:
HBV cccDNA = HBV cccDNA levels by Hirt extraction and Southern blotting; assay type: cell-based, hepatitis B virus; conditions: HBV-infected HepG2-hNTCP-C9 cells, 10 days; 20 μM Juglone or PiB, 30 μM ATRA, 6,7,4′-THIF or KPT-6566, 40 μM EGCG
Experimental: Mock-infected HepG2-hNTCP-C9 cells (lane 1) or HBV-infected HepG2-hNTCP-C9 cells (lanes 2–3) were treated with solvent (lane 2) or 20 μM Juglone, 20 μM PiB, 30 μM ATRA, 30 μM 6,7,4′-THIF, 30 μM KPT6566, or 40 μM EGCG (lane 3) for 10 days. HBV cccDNA levels were determined by the Hirt extraction method, as described previously ([Saeed et al., 2019]). Data are presented from three independent experiments.
HBV cccDNA synthesis was examined using the protein-free Hirt cccDNA extraction method. Briefly, HBV-infected PIN1 or PIN4 KD cells at approximately 100% confluency were incubated for 10 days, lysed with 10 mM EDTA and 10 mM Tris–HCl [pH 7.5] containing 0.6% SDS-TE buffer, treated for 16 h by adding 5 M NaCl to the final concentration of 1 M, and precipitated by centrifugation for 30 min at 14,500 × g. The supernatants were subjected to multiple phenol extractions (two times) followed by cccDNA extraction via phenol/chloroform. The supernatant containing cccDNA was precipitated by ethanol and furthermore analyzed by Southern blotting. The HBV cccDNA ChIP was performed using cccDNA-specific primers and analyzed by PCR (GeneAmp 2,700, Applied Biosystems), as described previously ([Bichko et al., 1985]; [Piracha et al., 2018], [2020]; [Saeed et al., 2019], [2021]). From the clinical specimens, HBV cccDNA levels were examined, as described previously ([Zhang et al., 2017]), using 251F 5′-GAC TYG TGG TGG ACT TCT C-3′ and 1190R 5′-TCA GCA AAY ACT YGG CA-3′ set of primers.

[1] = MTT cell cytotoxicity assay; assay type: cell-based; conditions: human, Huh7, HepAD38, HepG2, HepG2.2.15 cells, cell line not stated, read-out: 50% cytotoxic concentration (CC50)
Experimental: Since PIN1 and PIN4 were highly expressed in HCC cells, we speculated that the inhibition of parvulins via Juglone, PiB, ATRA, 6,7,4′-THIF, KPT6566, and EGCG might affect HBV replication (Figure 2A). The optimum dosage was determined in several HCC cell lines. Compared to mock or solvent-treated 10, 20, 30, 50, or 100 μM, drug-treated cell viabilities were determined by the MTT assay in Huh7, HepAD38, HepG2, and HepG2.2.15 cells (Figure 2B). The data from triplicate experiments were used to examine 50% cytotoxic concentration (CC50) of Juglone, PiB, ATRA, 6,7,4′-THIF, KPT6566, and EGCG via the GraphPad Prism software (Figure 2C). The CC50 values for Juglone and PiB were 30 and 40 μM, respectively. […] However, KPT6566 and EGCG depicted 45 and 80 μM as CC50 values, respectively. We optimized the effects of Juglone and PiB parvulin inhibitors in diverse HBV replicating HCC cell lines at 20 μM concentration. In addition, 30 μM concentrations were used to determine the effects of ATRA, 6,7,4′-THIF, and KPT6566 on HBV replication. While a 40 μM concentration of EGCG was optimized for determining the effects on HBV replication in multiple HCC cell lines.
Figure 2 MTT assay to measure the cytotoxicity of parvulin inhibitors (Juglone, PiB, ATRA, 6,7,4′-THIF, KPT6566, and EGCG). (A) The chemical structures of parvulin inhibitors including Juglone, PiB, ATRA, 6,7,4′-THIF, KPT6566, and EGCG are shown. (B) Huh7, HepAD38, HepG2, and HepG2.2.15 cells were exposed to varying concentrations (10 μM, 20 μM, 30 μM, 50 μM, and 100 μM) of inhibitors Juglone, PiB, ATRA, 6,7,4′-THIF, KPT6566, and EGCG for 48 h and values were determined via MTT assay. (C) The concentrations of Juglone, PiB, ATRA, 6,7,4′-THIF, KPT6566, and EGCG at which cell viability was reduced to 50% (CC50) to that of the control (cells treated by the solvent) were determined. TEXT PRINTED IN THE PICTURE: (C) Juglone: CC50: 30 | (C) PiB: CC50: 40 | (C) ATRA: CC50: 45 | (C) 6,7,4 THIF: CC50: 50 | (C) KPT6566: CC50: 45 | (C) EGCG: CC50: 80 DOUBTS OF THE COPYIST ABOUT THIS PICTURE: All CC50 labels in panel C are printed small and blurred, and no unit is printed with them / Juglone, CC50: 30 or 50 / ATRA, CC50: 45 or 46 / 6,7,4 THIF, CC50: 50 or 60 / KPT6566, CC50: 45 or 46 / EGCG, CC50: 80 or 30, first digit partly overlapped by an error bar
The cytotoxic effects of parvulin inhibitors (Juglone, PiB, ATRA, 6,7,4′-THIF, KPT6566, and EGCG) via MTT (3-[4,5-dimethylththiazol-2-yl]-2,5-diphenyltetrazolium bromide) assay were determined in Huh7, HepAD38, HepG2, and HepG2.2.15 cell lines. The cells were grown in 96-well microplates and incubated with serial dilutions of Juglone, PiB, ATRA, 6,7,4′-THIF, KPT6566, or EGCG for 48 h at 37°C. The cellular viabilities were examined after replacing the culture medium with 100 μl of MTT in DMEM. After 3 h, 100 μl of DMSO was added to dissolve the formazan of MTT. The absorbance value was measured at 570 nm via plate reader. Afterward, the concentrations of Juglone, PiB, ATRA, 6,7,4′-THIF, KPT6566, and EGCG at which cell viability was reduced to 50% (CC50) to that of the control were determined.

Structure (SMILES) | HBV cccDNA levels (HBV cccDNA) | CC50 at 48 h [1]
O=c1c(-c2ccc(O)cc2)coc2cc(O)c(O)cc12 [6,7,4′-THIF, 6,7-dihydroxy-3-(4-hydroxyphenyl)-4H-chromen-4-one] | without affecting HBV cccDNA levels | 50 µM
O=C1C=CC(=O)c2c(O)cccc21 [Juglone, 5-hydroxyl-1,4-naphthoquinone] | without affecting HBV cccDNA levels | 30 µM
CC1=C(/C=C/C(C)=C/C=C/C(C)=C/C(=O)O)C(C)(C)CCC1 [ATRA, All-trans-retinoic acid] | without affecting HBV cccDNA levels | 45 µM
CC(C)(C)c1ccc(S(=O)(=O)N=C2C=C(SCC(=O)O)C(=O)c3ccccc32)cc1 [KPT6566, 2-[[4-[[[4-(1,1-dimethylethyl)phenyl]sulfonyl]imino]-1,4-dihydro-1-oxo-2-naphthalenyl]thio] acetic acid] | without affecting HBV cccDNA levels | 45 µM
CCOC(=O)CN1C(=O)c2ccc3c4c(ccc(c24)C1=O)C(=O)N(CC(=O)OCC)C3=O [PiB, 1,3,6,8-tetrahydro-1,3,6,8-tetraoxo-benzo [lmn][3,8] phenanthroline-2,7-diacetic acid, 2,7-diethyl ester] | without affecting HBV cccDNA levels | 40 µM
O=C(O[C@@H]1Cc2c(O)cc(O)cc2O[C@@H]1c1cc(O)c(O)c(O)c1)c1cc(O)c(O)c(O)c1 [EGCG, Epigallocatechin gallate] | without affecting HBV cccDNA levels | 80 µM
